In ChEMBL document CHEMBL1201862, “PubChem BioAssay data set” (2004) one finds IC50, AC50 and EC50 data, which are given here for 6 compounds.

The source made the active and inactive calls.

The target of experiment [1] is Delta-type opioid receptor (Homo sapiens, UniProt P41143). Description: Late-stage results from the probe development effort to identify antagonists of OPRK1: fluorescence-based cell-based dose response OPRD1 counterscreen. In kind it is functional. (In general: The purpose of a counterscreen is to sort out artefacts and off-target activity.)
The target of a further experiment is Mu-type opioid receptor (Homo sapiens, UniProt P35372). Description: Late-stage results from the probe development effort to identify antagonists of OPRK1: luminescence-based cell-based dose response OPRM1 counterscreen. The experiment is classed as functional.
Experiment [2] deals with Endoplasmic reticulum aminopeptidase 1 (Homo sapiens, UniProt Q9NZ08). Kind of experiment: ERAP1 aminopeptidase inhibitors, dose response, biochemical, cherry-pick, set 2, plate reader (AID 743314).
The target of experiment [3] is Endoplasmic reticulum aminopeptidase 2 (Homo sapiens, UniProt Q6P179). Kind of experiment: ERAP2 aminopeptidase inhibitors, dose response, selectivity assay for selective ERAP1 modulator project, biochemical, fluorescence plate reader, cherry-picked, set 2 (AID 743320).
The nature of experiment [4]: NIH-3T3 fibroblast cytotoxicity, dose response, cytotoxicity control, cell-based, fluorescence, Alamar Blue, secondary assay (AID 2327).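 Also: NIH-3T3 mouse fibroblasts cultured with fluconazole at 8 µg/mL.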 In kind it is functional. Background: Resazurin is reduced to fluorescent resorufin, in cell work by metabolically active cells.
Experiment [5] is described as follows: NIH:OVCAR-3 ovarian cancer cell cytotoxicity, dose response, PAX8 inhibitor project, plate reader, dry powder samples (AID 743044). In kind it is functional, cell-based.
Experiment [6] is described as follows: cytotoxicity in OVCAR4 cells, dose response, cytotoxicity control for PAX8 inhibitor project, cell-based, plate reader, dry powder, SA11 (AID 743150). The experiment is classed as functional. Conditions: OVCAR-4.
Experiment [7] in a line: IGROV1 ovarian cancer cell cytotoxicity, dose response, PAX8 inhibitor project, plate reader, dry powder samples (AID 743043). In kind it is functional, cell-based. The settings on record: IGROV-1.
Experiment [8] can be described thus: PAX2 cell-based inhibition, dose response, selectivity assay for PAX8 inhibitor project, plate reader, dry powder samples (AID 743048).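 Also: HEK293 cells carrying a WT1 promoter luciferase reporter driven by expressed Pax2; potency is for inhibition of Pax2 driven reporter signal.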 The experiment is classed as functional.
Experiment [9] can be described thus: cytotoxicity in OV-90 ovarian cancer cells, dose response, PAX8 inhibitor project, cell-based, plate reader, dry powder, SA8 (AID 743149). The experiment is classed as functional.
A short description of experiment [10]: cytotoxicity dependent on PAX8, dose response, cell-based, plate reader, dry powder (AID 743049). The experiment is classed as functional.
Experiment [11] in a line: cytotoxicity in COV434 cells, dose response, cytotoxicity control for PAX8 inhibitor project, cell-based, plate reader, dry powder, SA7 (AID 743145). The experiment is classed as functional.
Another experiment addresses Paired box protein Pax-8 (Homo sapiens, UniProt Q06710). Kind of experiment: inhibitors of PAX8-driven TPO luciferase reporter, dose response, RMG-I cells, cherry-pick (AID 687027).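 Also: luciferase reporter driven by Pax8 target thyroperoxidase promoter measured by SteadyGlo luminescence.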 The experiment is classed as functional, cell-based. (In general: Reporter assays use an easily measured gene product as a stand-in for the process of interest.)
Experiment [12] can be described thus: C. albicans growth with fluconazole, confirmation, fluorescence, retest (AID 2467). The experiment is classed as functional, cell-based.
A short description of experiment [13]: inhibitors of intracellular T. cruzi replication, confirmation, NIH3T3 host cells, beta-gal luminescence (AID 2044).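 Also: intracellular parasites grown in NIH/3T3 mouse fibroblasts as host cells; luminescent beta-galactosidase reporter signal from transgenic T. cruzi replicating inside host cells; inhibitors lower the luminescence signal.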 The experiment is classed as functional, cell-based.
In experiment [14] the target is COUP transcription factor 2 (Homo sapiens, UniProt P24468). Description: Luminescence-based cell-based high throughput dose response assay to identify inhibitors of COUP-TFII (NR2F2). The experiment is classed as functional.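 Also: HEK293 cells transiently cotransfected with COUP-TFII expression vector and reporter; luciferase reporter luminescence driven by COUP-TFII from the pX2-168 reporter plasmid.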
The next experiment relates to INS1. Kind of experiment: beta cell apoptosis inhibitors, cytokine rescue, dose response, luminescence, retest (AID 449756).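 Also: cell death triggered by IL-1 beta plus TNF-alpha plus IFN-gamma mixture; protective hits raise ATP signal compared with cytokine alone wells.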 In kind it is functional, cell-based. The settings on record: Rattus norvegicus.
Experiment [15] is described as follows: cytotoxicity toward NIH3T3 fibroblasts, dose response, counter-screen, cell-based, ATP luminescence, mouse fibroblasts (AID 2010).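 Also: cells exposed to compound for about 90 hours before reading.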 In kind it is functional.
Experiment [16] has as its target T1, Methionyl-tRNA synthetase, putative (Trypanosoma brucei brucei, UniProt Q38C91).
T1 sequence (Q38C91 whole entry): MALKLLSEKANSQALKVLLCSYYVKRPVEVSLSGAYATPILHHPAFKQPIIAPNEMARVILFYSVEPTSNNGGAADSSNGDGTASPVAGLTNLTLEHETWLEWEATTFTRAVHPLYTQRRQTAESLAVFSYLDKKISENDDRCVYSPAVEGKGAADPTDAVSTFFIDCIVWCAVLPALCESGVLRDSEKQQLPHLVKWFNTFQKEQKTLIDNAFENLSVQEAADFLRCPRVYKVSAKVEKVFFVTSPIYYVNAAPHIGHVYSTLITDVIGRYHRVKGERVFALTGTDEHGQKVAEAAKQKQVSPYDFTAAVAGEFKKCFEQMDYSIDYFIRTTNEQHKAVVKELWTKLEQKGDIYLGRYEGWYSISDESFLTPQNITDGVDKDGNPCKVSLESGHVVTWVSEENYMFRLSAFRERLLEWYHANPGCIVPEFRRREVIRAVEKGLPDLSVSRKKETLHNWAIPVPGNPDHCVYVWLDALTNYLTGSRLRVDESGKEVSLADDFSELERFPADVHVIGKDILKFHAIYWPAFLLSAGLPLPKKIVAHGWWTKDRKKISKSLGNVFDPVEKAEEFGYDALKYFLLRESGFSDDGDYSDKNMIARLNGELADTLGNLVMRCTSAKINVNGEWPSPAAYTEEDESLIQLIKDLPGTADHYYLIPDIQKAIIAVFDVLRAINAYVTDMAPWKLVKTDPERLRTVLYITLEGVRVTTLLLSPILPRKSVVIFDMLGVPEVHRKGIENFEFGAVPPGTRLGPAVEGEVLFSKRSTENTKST
The experiment is classed as functional, Trypanosoma brucei brucei strain 927/4 GUTat10.1.

The target of experiment [17] is T1, Methionyl-tRNA synthetase, putative. In kind it is functional, Trypanosoma brucei brucei strain 927/4 GUTat10.1. The source holds these as a separate data set.
Experiment [18] is described as follows: Late stage counterscreen for inhibitors of Trypanosoma brucei methionyl tRNA synthetase (MetRS): Luminescence-based cell-based high throughput dose response assay to identify compounds that are cytotoxic to Jurkat human T lymphocyte cells. The experiment is classed as functional.
The nature of experiment [19]: Counterscreen for inhibitors of Trypanosoma brucei methionyl tRNA synthetase (MetRS): Luminescence-based cell-based high throughput dose response assay to identify compounds that are cytotoxic to Jurkat human T lymphocyte cells. In kind it is functional.
The nature of experiment [20]: A Cell-Based Confirmatory Screen for Compounds that Inhibit VEEV, TC-83 (8). The experiment is classed as functional.
Experiment [21] is described as follows: A Cell-Based Confirmatory Screen for Compounds that Inhibit VEEV, TC-83 (5). In kind it is functional.

Chain of Delta-type opioid receptor (P41143 whole entry): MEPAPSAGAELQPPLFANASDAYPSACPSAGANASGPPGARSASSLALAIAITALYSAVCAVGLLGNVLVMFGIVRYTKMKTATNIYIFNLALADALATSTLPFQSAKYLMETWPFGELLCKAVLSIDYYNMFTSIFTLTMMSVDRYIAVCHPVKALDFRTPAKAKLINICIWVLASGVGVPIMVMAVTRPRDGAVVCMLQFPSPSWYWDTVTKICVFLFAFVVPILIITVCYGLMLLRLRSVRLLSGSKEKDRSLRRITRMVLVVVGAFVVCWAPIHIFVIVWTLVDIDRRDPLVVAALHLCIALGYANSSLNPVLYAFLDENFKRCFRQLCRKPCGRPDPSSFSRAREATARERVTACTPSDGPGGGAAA
Chain of Mu-type opioid receptor (P35372 whole entry): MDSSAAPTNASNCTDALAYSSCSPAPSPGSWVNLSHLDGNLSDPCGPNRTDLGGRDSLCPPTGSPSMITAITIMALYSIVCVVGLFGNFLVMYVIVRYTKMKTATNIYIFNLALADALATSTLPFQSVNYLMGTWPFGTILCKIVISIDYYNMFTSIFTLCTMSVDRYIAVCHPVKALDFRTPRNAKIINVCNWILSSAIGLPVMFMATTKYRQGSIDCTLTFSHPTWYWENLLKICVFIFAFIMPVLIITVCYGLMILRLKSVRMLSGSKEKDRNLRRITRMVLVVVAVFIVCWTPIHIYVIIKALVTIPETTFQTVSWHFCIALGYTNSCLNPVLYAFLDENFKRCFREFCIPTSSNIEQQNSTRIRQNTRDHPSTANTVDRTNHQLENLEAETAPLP
Chain of Endoplasmic reticulum aminopeptidase 2 (Q6P179 whole entry): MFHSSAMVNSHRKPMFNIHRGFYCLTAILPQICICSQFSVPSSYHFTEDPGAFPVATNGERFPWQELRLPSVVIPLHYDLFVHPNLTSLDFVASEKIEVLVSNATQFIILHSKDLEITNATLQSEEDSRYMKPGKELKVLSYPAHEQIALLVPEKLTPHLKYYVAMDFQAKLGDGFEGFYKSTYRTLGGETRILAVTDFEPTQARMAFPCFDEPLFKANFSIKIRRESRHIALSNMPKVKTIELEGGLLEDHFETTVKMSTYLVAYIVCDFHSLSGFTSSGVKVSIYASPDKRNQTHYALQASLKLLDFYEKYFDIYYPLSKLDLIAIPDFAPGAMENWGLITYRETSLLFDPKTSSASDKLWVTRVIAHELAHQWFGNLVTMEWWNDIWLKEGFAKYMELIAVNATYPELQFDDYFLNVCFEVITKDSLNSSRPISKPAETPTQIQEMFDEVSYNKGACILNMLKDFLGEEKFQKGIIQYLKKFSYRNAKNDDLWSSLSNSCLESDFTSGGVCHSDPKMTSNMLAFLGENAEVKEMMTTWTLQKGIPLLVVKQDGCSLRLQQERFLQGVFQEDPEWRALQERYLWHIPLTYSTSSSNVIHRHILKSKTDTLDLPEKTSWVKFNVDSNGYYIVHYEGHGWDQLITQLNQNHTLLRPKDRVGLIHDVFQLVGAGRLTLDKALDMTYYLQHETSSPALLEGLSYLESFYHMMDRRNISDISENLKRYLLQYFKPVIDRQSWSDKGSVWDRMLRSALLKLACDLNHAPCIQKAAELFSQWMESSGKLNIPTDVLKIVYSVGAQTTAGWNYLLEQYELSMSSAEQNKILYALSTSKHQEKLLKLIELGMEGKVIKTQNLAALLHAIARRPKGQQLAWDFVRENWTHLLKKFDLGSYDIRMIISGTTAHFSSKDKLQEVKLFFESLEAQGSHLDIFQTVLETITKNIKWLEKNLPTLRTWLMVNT
Chain of COUP transcription factor 2 (P24468 whole entry): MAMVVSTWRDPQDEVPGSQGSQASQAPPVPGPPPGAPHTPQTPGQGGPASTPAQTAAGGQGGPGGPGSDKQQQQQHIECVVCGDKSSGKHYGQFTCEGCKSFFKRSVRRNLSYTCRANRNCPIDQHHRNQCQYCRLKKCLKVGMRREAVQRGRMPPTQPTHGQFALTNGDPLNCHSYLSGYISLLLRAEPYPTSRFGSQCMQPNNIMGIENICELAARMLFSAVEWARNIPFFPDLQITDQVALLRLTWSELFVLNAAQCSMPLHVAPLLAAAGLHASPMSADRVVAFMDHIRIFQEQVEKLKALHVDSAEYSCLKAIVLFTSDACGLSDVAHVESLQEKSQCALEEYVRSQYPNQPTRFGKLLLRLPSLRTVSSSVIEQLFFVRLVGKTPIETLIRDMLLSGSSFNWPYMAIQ
Chain of Endoplasmic reticulum aminopeptidase 1 (Q9NZ08 whole entry): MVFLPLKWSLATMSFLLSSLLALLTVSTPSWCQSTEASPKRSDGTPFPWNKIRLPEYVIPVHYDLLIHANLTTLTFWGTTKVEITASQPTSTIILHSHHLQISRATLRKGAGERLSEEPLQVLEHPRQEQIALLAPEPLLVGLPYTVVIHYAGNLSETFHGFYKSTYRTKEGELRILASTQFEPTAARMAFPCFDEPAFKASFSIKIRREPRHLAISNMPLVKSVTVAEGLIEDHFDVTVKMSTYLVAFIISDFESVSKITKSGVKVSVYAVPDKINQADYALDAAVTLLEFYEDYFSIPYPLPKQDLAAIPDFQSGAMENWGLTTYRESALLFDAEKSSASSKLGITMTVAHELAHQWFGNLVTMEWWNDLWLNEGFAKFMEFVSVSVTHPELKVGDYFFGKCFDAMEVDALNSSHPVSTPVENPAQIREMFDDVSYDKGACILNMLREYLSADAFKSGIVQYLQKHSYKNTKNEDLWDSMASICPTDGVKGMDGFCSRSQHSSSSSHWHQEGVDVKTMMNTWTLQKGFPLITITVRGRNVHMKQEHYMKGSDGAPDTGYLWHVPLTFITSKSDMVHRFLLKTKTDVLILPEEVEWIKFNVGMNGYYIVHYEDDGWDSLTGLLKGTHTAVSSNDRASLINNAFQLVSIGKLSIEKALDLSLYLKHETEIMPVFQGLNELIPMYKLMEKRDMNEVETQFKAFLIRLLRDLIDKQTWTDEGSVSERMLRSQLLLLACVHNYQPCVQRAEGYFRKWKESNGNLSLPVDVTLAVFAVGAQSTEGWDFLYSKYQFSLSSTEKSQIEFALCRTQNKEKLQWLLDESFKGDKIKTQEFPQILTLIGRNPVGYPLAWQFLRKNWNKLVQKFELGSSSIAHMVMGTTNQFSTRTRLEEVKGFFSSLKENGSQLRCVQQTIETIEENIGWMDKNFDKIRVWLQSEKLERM
Chain of Paired box protein Pax-8 (Q06710 whole entry): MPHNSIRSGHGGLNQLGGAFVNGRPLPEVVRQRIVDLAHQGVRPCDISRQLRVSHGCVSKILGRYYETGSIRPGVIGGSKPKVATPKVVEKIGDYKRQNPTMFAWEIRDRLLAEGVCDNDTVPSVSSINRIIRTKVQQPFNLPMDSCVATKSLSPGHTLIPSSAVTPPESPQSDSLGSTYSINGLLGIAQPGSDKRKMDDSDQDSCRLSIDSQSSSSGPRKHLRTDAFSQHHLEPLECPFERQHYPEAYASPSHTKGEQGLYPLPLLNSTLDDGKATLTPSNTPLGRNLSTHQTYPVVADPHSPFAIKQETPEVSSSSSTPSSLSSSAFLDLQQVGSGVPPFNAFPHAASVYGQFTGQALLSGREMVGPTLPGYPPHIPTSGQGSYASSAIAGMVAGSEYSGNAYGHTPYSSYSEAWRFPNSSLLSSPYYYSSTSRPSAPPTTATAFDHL

As a reminder, the IC50 is the concentration needed to halve the response being measured. As to `COC(=O)c1cc(Br)cnc1N1CCC(NC2CCOCC2)CC1`, the IC50 in experiment [1] is > 50 µM (inactive); at Mu-type opioid receptor, 50 µM (inactive).
The AC50 is the concentration giving half of the maximal activity seen. `CCC(=O)N(C)C[C@@H]1Oc2ncc(C#Cc3ccncc3)cc2C(=O)N([C@@H](C)CO)C[C@@H]1C`: the AC50 in [2] was 2.86 µM (active); in [3], 17.2 µM (active).
Usually EC50 stands for the concentration that produces a half-maximal response. As for `CC(C)(C)c1nnc(NC(=O)CCS(=O)(=O)c2ccccc2)s1`, the EC50 is > 150 µM (inactive) in experiment [4] and 1.09 µM (active) in experiment [12]. Besides, the AC50 was 48.2 µM (active) in experiment [5]; 4.22 µM (active) in experiment [6]; 50.7 µM (active) in experiment [7]; > 52 µM (inactive) in experiment [8]; > 100 µM (inactive) in experiment [9]; 25 µM (active) in experiment [10]. In addition, the AC50 in [11] is > 100 µM (inactive); at Paired box protein Pax-8, 4.6 µM (active).
Turning to `Cc1ccc(-c2cc3cccc[n+]3cc2-c2ccc(C)cc2)cc1`, the results for the EC50 (in [13]; in “cells”; in [15]) were < 0.1 µM (active), 0.019 µM (active) and > 60 µM (not active), respectively. Moreover, in [14], the 50% inhibitory concentration (IC50) is 5.1 µM (active). In the experiment with INS1, the AC50 was 0.572 µM (active).
As to `O=C(NCc1nc2ccccc2[nH]1)C1=C[C@@H](c2ccc(Br)cc2)C[C@@H](OCCCCO)O1`, the IC50 in [16] is 0.551 µM (active); in [17] it was 0.27 µM (active); in experiment [18], 48.4 µM (inactive); in experiment [19], 83.3 µM (inactive).
Consider `O=c1c2cc([N+](=O)[O-])ccc2nc(CN2CCNCC2)n1-c1ccccc1`, for which the concentration for half-maximal inhibition (IC50) in experiment [20] was < 0.168 µM (active); in experiment [21], 0.15 µM (active).
